Experimental data taken from patent US6355799B1, “Substituted benzene compounds, process for their preparation, and herbicidal and defoliant compositions containing them” (ISK Americas Incorporated, priority 1997, dated 2002).

Assays:
Type in all cases: in vivo
[1] = system: sicklepod (Cassia obtusifolia, CASOB); experiment: Pre-emerge test, greenhouse herbicide activity screening; conditions: for phytotoxicity rating CASOB: pre-emerge, 14 days after application, rating scale 0-100; for Pre-emerge herbicidal activity, phytotoxicity rating CASOB: rating scale 0-100, 14 days after application
Excerpt: (§1) A standard greenhouse herbicide activity screening system was used to evaluate the herbicidal efficacy and crop safety of these test compounds. Seven broadleaf weed species including redroot pigweed (Amaranthus retroflexus, AMARE, velvetleaf (Abutilon theophrasti, ABUTH), sicklepod (Cassia obtusifolia, CASOB), ivyleaf morningglory (Ipomoea hederacea, IPOHE), lambsquarters (Chenopodium album, CHEAL), common ragweed (Ambrosia artemisizfolia L., AMBEL), and cocklebur (Xanthium strumarium, XANST) were used as test species. Four grass weed species including green foxtail (Setaria viridis, SETVI), barnyardgrass (Echinochloa crus-galli, ECHCG), johnsongrass (Sorghum halepense, SORHA), and large crabgrass (Digitaria sanguinalis, DIGSA) were also used. In addition, three crop species, field corn (Zea mays L., var. Dekalb 535, CORN), soybean (Glycine max L., var. Pella 86, SOY), and is upland rice (Oryza sp., var. Tebonnet, RICE) were included.
(§2) All plants were grown in 10 cm square plastic pots which were filled with a sandy loam soil mix. For pre-emerge tests, seeds were planted one day prior to application of the test compounds. For post-emerge tests, seeds were planted 8-21 days prior to the test to allow emergence and good foliage development prior to application of the test substances. At the time of the post-emerge application, plants of all species were usually at the 2-3 leaf stage of development.
(§3) All test compounds Were dissolved in acetone and applied to the test units in a volume of 187 l /ha. Test materials were applied at rates ranging from 15 g ai/ha to 1000 g ai/ha using a track sprayer equipped with a TJ8001E even flow flat fan spray nozzle. Plants were arranged on a shelf so that the top of the canopy (post-emerge) or top of the soil surface (pre-emerge) was 40-45 cm below the nozzle. Pressurized air was used to force the test solution through the nozzle as it was mechanically advanced (via electrically driven chain drive) over the top of all test plants/pots. This application simulates a typical commercial field herbicide application.
(§4) In the post-emerge test, a commercial non-ionic surfactant was also included (0.25% v/v) to enhance wetting of the leaf surfaces of target plants. Immediately after application, test units of the pre-emerge applications were watered at the soil surface to incorporate the test materials. Subsequently, these test units were bottom-watered. Post-emerge test units were always bottom-watered.
(§5) At 14 days after application of the test materials, phytotoxicity ratings were recorded. A rating scale of 0-100 was used as previously described in Research Methods in Weed Science, 2nd edition, B. Truelove, Ed., Southern Weed Science Society, Auburn University, Auburn, Ala. 1977. Briefly, “0” corresponds to no damage and “100” corresponds to complete death of all plants in the test unit. This scale was used both to determine efficacy against weed species and damage to crop species. Herbicide activity data for various compounds of this invention, which are shown by compound No. in Tables 1-8, are shown in Tables 11 and 12.

[2] = system: lambsquarters (Chenopodium album, CHEAL); experiment: as above; conditions: for phytotoxicity rating CHEAL: pre-emerge, 14 days after application, rating scale 0-100; for Pre-emerge herbicidal activity, phytotoxicity rating CHEAL: rating scale 0-100, 14 days after application
Excerpt: as §1, §2, §3, §4, §5

[3] = system: large crabgrass (Digitaria sanguinalis, DIGSA); experiment: as above; conditions: for phytotoxicity rating DIGSA: pre-emerge, 14 days after application, rating scale 0-100; for Pre-emerge herbicidal activity, phytotoxicity rating DIGSA: rating scale 0-100, 14 days after application
Excerpt: as §1, §2, §3, §4, §5

[4] = system: ivyleaf morningglory (Ipomoea hederacea, IPOHE); experiment: as above; conditions: for phytotoxicity rating IPOHE: pre-emerge, 14 days after application, rating scale 0-100; for Pre-emerge herbicidal activity, phytotoxicity rating IPOHE: rating scale 0-100, 14 days after application
Excerpt: as §1, §2, §3, §4, §5

[5] = system: green foxtail (Setaria viridis, SETVI); experiment: as above; conditions: for phytotoxicity rating SETVI: pre-emerge, 14 days after application, rating scale 0-100; for Pre-emerge herbicidal activity, phytotoxicity rating SETVI: rating scale 0-100, 14 days after application
Excerpt: as §1, §2, §3, §4, §5

[6] = system: barnyardgrass (Echinochloa crus-galli, ECHCG); experiment: as above; conditions: for phytotoxicity rating ECHCG: pre-emerge, 14 days after application, rating scale 0-100; for Pre-emerge herbicidal activity, phytotoxicity rating ECHCG: rating scale 0-100, 14 days after application
Excerpt: as §1, §2, §3, §4, §5

[7] = system: velvetleaf (Abutilon theophrasti, ABUTH); experiment: as above; conditions: for phytotoxicity rating ABUTH: pre-emerge, 14 days after application, rating scale 0-100; for Pre-emerge herbicidal activity, phytotoxicity rating ABUTH: rating scale 0-100, 14 days after application
Excerpt: as §1, §2, §3, §4, §5

[8] = system: redroot pigweed (Amaranthus retroflexus, AMARE); experiment: as above; conditions: for phytotoxicity rating AMARE: pre-emerge, 14 days after application, rating scale 0-100; for Pre-emerge herbicidal activity, phytotoxicity rating AMARE: rating scale 0-100, 14 days after application
Excerpt: as §1, §2
as §3, with “Test materials were applied at rates ranging from 15 g ai/ha to 1000 g ai/ha using a track sprayer equipped with a TJ8001E even flow flat fan spray nozzle.” left out
as §4, §5

[9] = system: sicklepod (Cassia obtusifolia, CASOB); experiment: Post-emerge test, greenhouse herbicide activity screening; conditions: 14 days after application; for Post-emerge Herbicidal Activity CASOB (phytotoxicity rating): rating scale 0-100; for Post-emerge Herbicidal Activity, phytotoxicity rating CASOB: rating scale 0-100 (0 no damage, 100 complete death)
Excerpt: as §1, §2, §3, §4, §5

[10] = system: redroot pigweed (Amaranthus retroflexus, AMARE); experiment: as above; conditions: 14 days after application
Excerpt: as §1, §2, §3, §4, §5

[11] = system: lambsquarters (Chenopodium album, CHEAL); experiment: as above; conditions: 14 days after application; for Post-emerge Herbicidal Activity CHEAL (phytotoxicity rating): rating scale 0-100; for Post-emerge Herbicidal Activity, phytotoxicity rating CHEAL: rating scale 0-100 (0 no damage, 100 complete death)
Excerpt: as §1, §2, §3, §4, §5

[12] = system: large crabgrass (Digitaria sanguinalis, DIGSA); experiment: as above; conditions: 14 days after application; for Post-emerge Herbicidal Activity DIGSA (phytotoxicity rating): rating scale 0-100; for Post-emerge Herbicidal Activity, phytotoxicity rating DIGSA: rating scale 0-100 (0 no damage, 100 complete death)
Excerpt: as §1, §2, §3, §4, §5

[13] = system: ivyleaf morningglory (Ipomoea hederacea, IPOHE); experiment: as above; conditions: 14 days after application; for Post-emerge Herbicidal Activity IPOHE (phytotoxicity rating): rating scale 0-100; for Post-emerge Herbicidal Activity, phytotoxicity rating IPOHE: rating scale 0-100 (0 no damage, 100 complete death)
Excerpt: as §1, §2, §3, §4, §5

[14] = system: green foxtail (Setaria viridis, SETVI); experiment: as above; conditions: 14 days after application; for Post-emerge Herbicidal Activity SETVI (phytotoxicity rating): rating scale 0-100; for Post-emerge Herbicidal Activity, phytotoxicity rating SETVI: rating scale 0-100 (0 no damage, 100 complete death)
Excerpt: as §1, §2, §3, §4, §5

[15] = system: barnyardgrass (Echinochloa crus-galli, ECHCG); experiment: as above; conditions: 14 days after application; for Post-emerge Herbicidal Activity ECHCG (phytotoxicity rating): rating scale 0-100; for Post-emerge Herbicidal Activity, phytotoxicity rating ECHCG: rating scale 0-100 (0 no damage, 100 complete death)
Excerpt: as §1, §2, §3, §4, §5

[16] = system: velvetleaf (Abutilon theophrasti, ABUTH); experiment: as above; conditions: 14 days after application; for Post-emerge Herbicidal Activity ABUTH (phytotoxicity rating): rating scale 0-100; for Post-emerge Herbicidal Activity, phytotoxicity rating ABUTH: rating scale 0-100 (0 no damage, 100 complete death)
Excerpt: as §1, §2, §3, §4, §5

COc1c(Cl)cc(F)c(-n2c(=O)cc(C(F)(F)F)n(C)c2=O)c1NN [Compound 15-1, 3-[4-chloro-2-diazanyl-6-fluoro-3-methoxyphenyl]-1-methyl-6-trifluoromethyl-2,4(1H, 3H)-pyrimidinedione]
100: phytotoxicity rating CASOB ([1]; 63 g ai/ha) | phytotoxicity rating CASOB ([1]; 250 g ai/ha) | phytotoxicity rating CHEAL ([2]; 63 g ai/ha) | phytotoxicity rating CHEAL ([2]; 250 g ai/ha) | phytotoxicity rating DIGSA ([3]; 63 g ai/ha) | phytotoxicity rating DIGSA ([3]; 250 g ai/ha) | phytotoxicity rating IPOHE ([4]; 63 g ai/ha) | phytotoxicity rating IPOHE ([4]; 250 g ai/ha) | phytotoxicity rating SETVI ([5]; 63 g ai/ha) | phytotoxicity rating SETVI ([5]; 250 g ai/ha) | phytotoxicity rating ECHCG ([6]; 250 g ai/ha) | phytotoxicity rating ABUTH ([7]; 63 g ai/ha) | phytotoxicity rating ABUTH ([7]; 250 g ai/ha) | phytotoxicity rating AMARE ([8]; 63 g ai/ha) | phytotoxicity rating AMARE ([8]; 250 g ai/ha) | Post-emerge Herbicidal Activity CASOB (phytotoxicity rating) ([9]; 63 g ai/ha) | Post-emerge Herbicidal Activity CASOB (phytotoxicity rating) ([9]; 250 g ai/ha) | Post-emerge Herbicidal Activity AMARE (phytotoxicity rating) ([10]; 63 g ai/ha, rating scale 0-100 (0 no damage, 100 complete death)) | Post-emerge Herbicidal Activity AMARE (phytotoxicity rating) ([10]; 250 g ai/ha, rating scale 0-100) | Post-emerge Herbicidal Activity CHEAL (phytotoxicity rating) ([11]; 63 g ai/ha) | Post-emerge Herbicidal Activity CHEAL (phytotoxicity rating) ([11]; 250 g ai/ha) | Post-emerge Herbicidal Activity DIGSA (phytotoxicity rating) ([12]; 250 g ai/ha) | Post-emerge Herbicidal Activity IPOHE (phytotoxicity rating) ([13]; 63 g ai/ha) | Post-emerge Herbicidal Activity IPOHE (phytotoxicity rating) ([13]; 250 g ai/ha) | Post-emerge Herbicidal Activity SETVI (phytotoxicity rating) ([14]; 250 g ai/ha) | Post-emerge Herbicidal Activity ABUTH (phytotoxicity rating) ([16]; 63 g ai/ha) | Post-emerge Herbicidal Activity ABUTH (phytotoxicity rating) ([16]; 250 g ai/ha)
80: Post-emerge Herbicidal Activity SETVI (phytotoxicity rating) ([14]; 63 g ai/ha) | Post-emerge Herbicidal Activity ECHCG (phytotoxicity rating) ([15]; 63 g ai/ha)
99: Post-emerge Herbicidal Activity ECHCG (phytotoxicity rating) ([15]; 250 g ai/ha)
91: phytotoxicity rating ECHCG ([6]; 63 g ai/ha)
90: Post-emerge Herbicidal Activity DIGSA (phytotoxicity rating) ([12]; 63 g ai/ha)

CCOC(=O)C(Cl)Cc1c(OC)c(Cl)cc(F)c1-n1c(=O)cc(C(F)(F)F)n(C)c1=O (single isomer, unassigned) [Compound 14-4, 3-{4-chloro-2-[2-chloro-2-(ethoxycarbonyl)ethyl]-6-fluoro-3-methoxyphenyl}-1-methyl-6-trifluoromethyl-2,4(1H, 3H)-pyrimidinedione]
50: Pre-emerge herbicidal activity, phytotoxicity rating ABUTH ([7]; 63 g ai/ha) | Post-emerge Herbicidal Activity, phytotoxicity rating CASOB ([9]; Rate 63 g ai/ha) | Post-emerge Herbicidal Activity, phytotoxicity rating IPOHE ([13]; Rate 63 g ai/ha)
95: Pre-emerge herbicidal activity, phytotoxicity rating DIGSA ([3]; 250 g ai/ha) | Post-emerge Herbicidal Activity, phytotoxicity rating DIGSA ([12]; Rate 250 g ai/ha)
0: Pre-emerge herbicidal activity, phytotoxicity rating IPOHE ([4]; 63 g ai/ha) | Pre-emerge herbicidal activity, phytotoxicity rating ECHCG ([6]; 63 g ai/ha) | Pre-emerge herbicidal activity, phytotoxicity rating ECHCG ([6]; 250 g ai/ha)
90: Pre-emerge herbicidal activity, phytotoxicity rating AMARE ([8]; 63 g ai/ha)
99: Post-emerge Herbicidal Activity, phytotoxicity rating ECHCG ([15]; Rate 250 g ai/ha)
60: Pre-emerge herbicidal activity, phytotoxicity rating CHEAL ([2]; 63 g ai/ha) | Post-emerge Herbicidal Activity, phytotoxicity rating IPOHE ([13]; Rate 250 g ai/ha)
65: Post-emerge Herbicidal Activity, phytotoxicity rating SETVI ([14]; Rate 250 g ai/ha)
75: Post-emerge Herbicidal Activity, phytotoxicity rating DIGSA ([12]; Rate 63 g ai/ha)
70: Pre-emerge herbicidal activity, phytotoxicity rating IPOHE ([4]; 250 g ai/ha)
100: Pre-emerge herbicidal activity, phytotoxicity rating CHEAL ([2]; 250 g ai/ha) | Pre-emerge herbicidal activity, phytotoxicity rating AMARE ([8]; 250 g ai/ha) | Post-emerge Herbicidal Activity, phytotoxicity rating CASOB ([9]; Rate 250 g ai/ha) | Post-emerge Herbicidal Activity, phytotoxicity rating AMARE ([10]; Rate 63 g ai/ha, rating scale 0-100 (0 no damage, 100 complete death)) | Post-emerge Herbicidal Activity, phytotoxicity rating AMARE ([10]; Rate 250 g ai/ha, rating scale 0-100 (0 no damage, 100 complete death)) | Post-emerge Herbicidal Activity, phytotoxicity rating CHEAL ([11]; Rate 63 g ai/ha) | Post-emerge Herbicidal Activity, phytotoxicity rating CHEAL ([11]; Rate 250 g ai/ha) | Post-emerge Herbicidal Activity, phytotoxicity rating ABUTH ([16]; Rate 250 g ai/ha)
20: Pre-emerge herbicidal activity, phytotoxicity rating CASOB ([1]; 63 g ai/ha) | Pre-emerge herbicidal activity, phytotoxicity rating CASOB ([1]; 250 g ai/ha) | Pre-emerge herbicidal activity, phytotoxicity rating DIGSA ([3]; 63 g ai/ha)
40: Pre-emerge herbicidal activity, phytotoxicity rating SETVI ([5]; 250 g ai/ha)
80: Pre-emerge herbicidal activity, phytotoxicity rating ABUTH ([7]; 250 g ai/ha) | Post-emerge Herbicidal Activity, phytotoxicity rating ABUTH ([16]; Rate 63 g ai/ha)
30: Post-emerge Herbicidal Activity, phytotoxicity rating SETVI ([14]; Rate 63 g ai/ha)
85: Post-emerge Herbicidal Activity, phytotoxicity rating ECHCG ([15]; Rate 63 g ai/ha)
10: Pre-emerge herbicidal activity, phytotoxicity rating SETVI ([5]; 63 g ai/ha)
